# From BindingDB's records for patent US20240335420 (Eurofarma, 2024)
# Assays:
# [1] = biological target: Sodium channel protein type 10 subunit alpha (Homo sapiens, UniProt Q9Y5Y9); experiment: In Vitro Assay (Protocol 1)
# Method: (§1) Compounds of Formula (I), were diluted in eight concentrations in the extracellular solution composed of physiological saline, buffered with HEPES (mM): NaCl, 137; KCl, 4; CaCl2, 3.8; MgCl2, 1; HEPES, 10; Glucose, 10; pH 7.4. The […], 50; CsF, 90; MgCl2, 5; EGTA, 5; HEPES, 10; pH 7.2. The duration of exposure of each compound with the cells expressing Nav 1.7 or Nav 1.8 was at least five minutes and the assays were performed at room temperature.The measurements of the sodium currents of Nav 1.8 and Nav 1.7 were obtained using the voltage protocols described below:Protocol 1: A holding voltage of −90 mV was established followed by a voltage phase of 200 ms to −120 mV, followed by a voltage step of 10 mV for 1 second for Nav 1.8 or 0 mV for Nav 1.7, followed by a step of −100 mV for 20 ms, followed by a step of 20 ms for 10 mV for Nav 1.8 or 0 mV for Nav 1.7 (TP1A) before returning to the holding voltage of −90 mV.Protocol 2: A holding voltage of −100 mV was established followed by an inactivation voltage step at −40 mV for 8 seconds, followed by a −100 mV step for […], followed by a 20 ms step for 10 mV for Nav 1.8 or 0 mV for Nav 1.7 (TP1A) before returning to the holding voltage of −100 mV.Protocols were repeated at a frequency of 0.1 Hz and current amplitude was quantified over the TP1A phase log. The variation in the peak amplitude of the current was evaluated according to the Formula described below, after exposure of the cells expressing the channels, at each concentration of the different compounds:%Block=(1-(ITP1A,molecule/ITP1A,basal)×100%,where |TP1A, basal, and |TP1A, molecule represent the entry peaks of sodium currents into TP1A prior to exposure to the compound and in the presence of the compound, respectively.
# [2] = biological target: Sodium channel protein type 9 subunit alpha (Homo sapiens, UniProt Q15858); experiment: In Vitro Assay (Protocol 1)
# Method: as §1
# Chain of Sodium channel protein type 9 subunit alpha (Q15858 whole entry): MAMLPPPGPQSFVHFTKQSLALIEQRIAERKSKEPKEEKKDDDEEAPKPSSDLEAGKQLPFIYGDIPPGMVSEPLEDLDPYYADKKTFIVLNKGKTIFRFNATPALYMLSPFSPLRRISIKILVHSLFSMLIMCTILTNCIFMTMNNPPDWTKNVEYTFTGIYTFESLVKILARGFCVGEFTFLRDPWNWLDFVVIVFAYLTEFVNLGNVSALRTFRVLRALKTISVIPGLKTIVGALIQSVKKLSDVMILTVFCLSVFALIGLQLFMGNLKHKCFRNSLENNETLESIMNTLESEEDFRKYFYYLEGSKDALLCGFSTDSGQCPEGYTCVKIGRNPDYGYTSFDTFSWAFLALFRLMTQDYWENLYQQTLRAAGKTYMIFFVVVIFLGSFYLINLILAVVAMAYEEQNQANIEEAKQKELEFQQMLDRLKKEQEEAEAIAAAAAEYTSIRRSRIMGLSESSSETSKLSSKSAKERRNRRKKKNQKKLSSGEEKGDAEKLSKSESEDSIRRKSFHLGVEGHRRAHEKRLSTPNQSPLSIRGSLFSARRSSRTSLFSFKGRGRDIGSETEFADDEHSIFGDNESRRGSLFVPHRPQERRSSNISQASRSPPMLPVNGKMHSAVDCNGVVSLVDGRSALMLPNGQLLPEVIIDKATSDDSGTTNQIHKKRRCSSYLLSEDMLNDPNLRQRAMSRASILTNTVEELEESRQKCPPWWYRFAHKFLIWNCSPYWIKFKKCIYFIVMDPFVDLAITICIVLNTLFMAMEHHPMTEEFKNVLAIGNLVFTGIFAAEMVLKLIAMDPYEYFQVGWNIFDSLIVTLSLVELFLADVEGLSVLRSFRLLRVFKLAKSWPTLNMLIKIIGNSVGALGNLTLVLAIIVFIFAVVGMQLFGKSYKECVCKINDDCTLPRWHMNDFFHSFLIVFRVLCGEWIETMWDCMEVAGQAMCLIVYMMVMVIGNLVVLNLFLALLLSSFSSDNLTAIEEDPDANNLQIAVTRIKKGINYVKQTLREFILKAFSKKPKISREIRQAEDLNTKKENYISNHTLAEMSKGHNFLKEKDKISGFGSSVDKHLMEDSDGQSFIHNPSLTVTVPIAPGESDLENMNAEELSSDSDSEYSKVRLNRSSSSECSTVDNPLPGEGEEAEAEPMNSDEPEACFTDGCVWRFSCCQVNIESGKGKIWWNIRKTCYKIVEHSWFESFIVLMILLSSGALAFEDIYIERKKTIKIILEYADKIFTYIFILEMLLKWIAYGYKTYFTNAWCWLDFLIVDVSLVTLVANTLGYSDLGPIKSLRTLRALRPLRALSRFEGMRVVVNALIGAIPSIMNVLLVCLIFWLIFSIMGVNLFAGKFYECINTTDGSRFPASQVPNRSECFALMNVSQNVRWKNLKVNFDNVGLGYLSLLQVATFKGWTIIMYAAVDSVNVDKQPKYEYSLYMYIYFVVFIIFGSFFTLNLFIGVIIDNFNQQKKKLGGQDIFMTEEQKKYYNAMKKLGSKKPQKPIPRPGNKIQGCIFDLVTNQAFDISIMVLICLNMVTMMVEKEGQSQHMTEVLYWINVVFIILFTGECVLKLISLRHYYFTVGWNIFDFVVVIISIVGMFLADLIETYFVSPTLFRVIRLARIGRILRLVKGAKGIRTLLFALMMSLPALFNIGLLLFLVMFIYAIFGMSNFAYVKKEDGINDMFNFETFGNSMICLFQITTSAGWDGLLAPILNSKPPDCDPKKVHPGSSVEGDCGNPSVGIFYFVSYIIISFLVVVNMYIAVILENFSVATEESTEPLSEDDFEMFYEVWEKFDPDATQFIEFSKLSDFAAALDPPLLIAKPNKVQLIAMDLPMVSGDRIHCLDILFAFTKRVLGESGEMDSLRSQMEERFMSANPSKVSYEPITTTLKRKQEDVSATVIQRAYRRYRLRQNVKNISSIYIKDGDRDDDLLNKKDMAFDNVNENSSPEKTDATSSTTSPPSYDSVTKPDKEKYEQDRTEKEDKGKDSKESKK
# Chain of Sodium channel protein type 10 subunit alpha (Q9Y5Y9 whole entry): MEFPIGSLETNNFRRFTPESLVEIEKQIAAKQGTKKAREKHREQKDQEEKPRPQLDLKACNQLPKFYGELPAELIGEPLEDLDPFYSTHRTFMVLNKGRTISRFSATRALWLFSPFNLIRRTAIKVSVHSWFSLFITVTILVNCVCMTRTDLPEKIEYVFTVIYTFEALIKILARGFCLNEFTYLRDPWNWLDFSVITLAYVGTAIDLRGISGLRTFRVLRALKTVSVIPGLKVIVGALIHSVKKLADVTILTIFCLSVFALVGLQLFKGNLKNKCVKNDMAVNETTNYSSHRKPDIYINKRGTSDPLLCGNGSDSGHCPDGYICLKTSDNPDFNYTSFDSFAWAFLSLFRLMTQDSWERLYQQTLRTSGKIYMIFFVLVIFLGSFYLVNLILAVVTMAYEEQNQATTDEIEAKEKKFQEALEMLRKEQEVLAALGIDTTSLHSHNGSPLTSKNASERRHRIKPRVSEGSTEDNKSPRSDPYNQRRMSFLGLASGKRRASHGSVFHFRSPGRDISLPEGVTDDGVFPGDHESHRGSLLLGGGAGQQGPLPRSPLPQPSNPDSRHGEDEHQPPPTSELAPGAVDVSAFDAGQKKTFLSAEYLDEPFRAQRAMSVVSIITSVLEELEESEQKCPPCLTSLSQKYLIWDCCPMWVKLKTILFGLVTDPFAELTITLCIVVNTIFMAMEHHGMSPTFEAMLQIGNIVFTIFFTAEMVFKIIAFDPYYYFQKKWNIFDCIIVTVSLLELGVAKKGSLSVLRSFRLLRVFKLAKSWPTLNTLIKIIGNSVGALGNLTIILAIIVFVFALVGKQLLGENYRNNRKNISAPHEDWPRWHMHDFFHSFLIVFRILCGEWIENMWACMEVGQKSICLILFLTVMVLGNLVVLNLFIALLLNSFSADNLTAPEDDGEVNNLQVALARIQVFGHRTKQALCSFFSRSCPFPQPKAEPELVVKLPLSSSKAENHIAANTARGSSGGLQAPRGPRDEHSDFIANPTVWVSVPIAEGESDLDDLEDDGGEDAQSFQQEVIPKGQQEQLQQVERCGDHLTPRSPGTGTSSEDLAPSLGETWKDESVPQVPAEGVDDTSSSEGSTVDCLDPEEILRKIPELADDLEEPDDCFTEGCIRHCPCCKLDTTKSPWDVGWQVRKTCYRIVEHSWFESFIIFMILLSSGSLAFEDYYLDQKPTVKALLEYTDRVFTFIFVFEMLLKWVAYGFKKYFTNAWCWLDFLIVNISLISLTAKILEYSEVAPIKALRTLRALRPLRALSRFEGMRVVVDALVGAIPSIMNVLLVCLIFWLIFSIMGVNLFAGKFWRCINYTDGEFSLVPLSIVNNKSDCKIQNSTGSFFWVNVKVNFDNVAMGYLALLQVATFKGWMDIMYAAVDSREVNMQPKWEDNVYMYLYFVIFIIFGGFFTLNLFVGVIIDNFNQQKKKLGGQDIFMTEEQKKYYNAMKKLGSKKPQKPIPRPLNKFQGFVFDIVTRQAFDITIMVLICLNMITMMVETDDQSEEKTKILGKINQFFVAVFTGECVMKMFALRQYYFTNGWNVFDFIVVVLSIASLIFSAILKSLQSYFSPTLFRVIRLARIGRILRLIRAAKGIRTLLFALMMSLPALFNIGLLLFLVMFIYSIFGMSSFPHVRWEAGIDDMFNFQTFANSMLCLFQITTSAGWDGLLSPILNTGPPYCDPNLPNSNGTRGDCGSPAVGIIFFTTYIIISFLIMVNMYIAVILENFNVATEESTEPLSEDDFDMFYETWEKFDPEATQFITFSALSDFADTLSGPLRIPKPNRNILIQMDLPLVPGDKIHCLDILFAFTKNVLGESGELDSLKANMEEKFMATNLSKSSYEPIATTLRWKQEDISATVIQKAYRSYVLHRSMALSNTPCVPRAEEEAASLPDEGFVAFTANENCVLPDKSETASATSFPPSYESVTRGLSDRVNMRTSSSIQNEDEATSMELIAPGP
IC50 [1],IC50 [2],SMILES
> 30 µM,> 30 µM,"O=C(N/N=C/c1cccs1)c1ccc(-c2ccc(Cl)cc2)o1 [US20240335420, Compound 1]"
1.37 µM,0.362 µM,"COc1cc(/C=N/NC(=O)c2cccc(-c3ccc(Cl)cc3)n2)cc(OC)c1 [US20240335420, Compound 10]"
